Data reported in DBAASP.
≈ marks a conversion by molar mass, not a printed value. One block for each compound: values may come before it.

Experiments:
Experiment in all cases: ≥ marks a high value that may be exact or a test limit, other limits are often not marked, values filed in µg/mL are converted to µM
[1] = tested on: Candida albicans
[2] = tested on: Enterococcus faecalis ATCC 29212
[3] = tested on: Escherichia coli UB1005
[4] = tested on: Pseudomonas aeruginosa H103
[5] = tested on: Salmonella enterica serovar Typhimurium
[6] = tested on: Staphylococcus aureus ATCC 25923
[7] = tested on: Staphylococcus epidermidis
[8] = tested on: Bacillus subtilis ATCC 6633
[9] = tested on: Candida albicans ATCC 2002
[10] = tested on: Shigella dysenteriae
[11] = tested on: Staphylococcus aureus ATCC 2592
[12] = tested on: Bacillus subtilis
[13] = tested on: Escherichia coli
[14] = tested on: Klebsiella pneumoniae
[15] = tested on: Micrococcus luteus
[16] = tested on: Proteus mirabilis
[17] = tested on: Pseudomonas aeruginosa
[18] = tested on: Salmonella typhimurium
[19] = tested on: Staphylococcus aureus
[20] = tested on: Candida albicans ATCC 90028
[21] = tested on: Staphylococcus aureus NCTC 8325
[22] = tested on: Micrococcus luteus ATCC 9341
[23] = tested on: Streptococcus mutans
[24] = tested on: Escherichia coli BW25113

MIC [1]: 7.6 µM (≈ 10.2 µg/mL)
MIC [2]: 3.8 µM (≈ 5.1 µg/mL)
MIC [3]: 3.8 µM (≈ 5.1 µg/mL)
MIC [4]: 15.3 µM (≈ 20.5 µg/mL)
MIC [5]: 7.6 µM (≈ 10.2 µg/mL)
MIC [6]: 1.9 µM (≈ 2.55 µg/mL)
MIC [7]: 1 µM (≈ 1.34 µg/mL)
Structure (SMILES): CC[C@H](C)[C@H](NC(=O)[C@H](Cc1ccccc1)NC(=O)[C@@H](N)Cc1ccccc1)C(=O)N[C@@H](Cc1ccc(O)cc1)C(=O)N[C@H](C(=O)N[C@@H](Cc1c[nH]c2ccccc12)C(=O)N[C@@H](CCCN=C(N)N)C(=O)N[C@@H](CCCN=C(N)N)C(=O)N[C@@H](CCCN=C(N)N)C(=O)O)C(C)C [FFIYVWRRR]

MIC [8]: 4.75 µM (≈ 9.37 µg/mL)
MIC [9]: 9.49 µM (≈ 18.7 µg/mL)
MIC [10]: 17.7 µM (≈ 35 µg/mL)
MIC [11]: 2.38 µM (≈ 4.7 µg/mL)
Structure (SMILES): CC[C@H](C)[C@H](NC(=O)[C@H](CCCCN)NC(=O)[C@@H]1CCCN1C(=O)[C@H](CC(C)C)NC(=O)[C@H](Cc1ccccc1)NC(=O)[C@H](CC(C)C)NC(=O)[C@@H]1CCCN1C(=O)[C@H](CC(C)C)NC(=O)[C@@H](N)Cc1ccccc1)C(=O)N[C@H](C(=O)N[C@H]1CSSC[C@@H](C(=O)O)NC(=O)[C@H](CCCCN)NC(=O)[C@H](CCCCN)NC(=O)[C@H]([C@@H](C)O)NC(=O)[C@H]([C@@H](C)CC)NC(=O)[C@H](C(C)C)NC1=O)[C@@H](C)CC [FLPLFLPKIICVITKKC]

MIC [12]: ≥ 177 µM
MIC [13]: 177 µM (≈ 200 µg/mL)
MIC [14]: > 177 µM
MIC [15]: ≥ 177 µM
MIC [16]: ≥ 177 µM
MIC [17]: > 177 µM
MIC [18]: ≥ 177 µM
MIC [10]: ≥ 177 µM
MIC [19]: 177 µM (≈ 200 µg/mL)
MIC [7]: ≥ 177 µM
Structure (SMILES): CC(C)C[C@H](NC(=O)[C@@H](NC(=O)[C@H](CCCCN)NC(=O)[C@H](CO)NC(=O)[C@H](C)NC(=O)[C@@H](NC(=O)[C@H](CCCCN)NC(=O)[C@H](Cc1ccccc1)NC(=O)[C@H](CC(C)C)NC(=O)[C@H](C)NC(=O)CN)C(C)C)C(C)C)C(=O)O [GALFKVASKVL]

MIC [9]: 3.86 µM (≈ 7.49 µg/mL)
MIC [20]: ≥ 100 µM
MIC [10]: 0.643 µM (≈ 1.25 µg/mL)
MIC [11]: 1.29 µM (≈ 2.5 µg/mL)
MIC [21]: ≥ 100 µM
Structure (SMILES): CC[C@H](C)[C@H](NC(=O)CNC(=O)[C@H](CO)NC(=O)[C@H](CC(C)C)NC(=O)[C@H](CC(C)C)NC(=O)CN)C(=O)N[C@@H](CC(C)C)C(=O)NCC(=O)N[C@@H](C)C(=O)NCC(=O)N[C@@H](CCCCN)C(=O)N[C@@H](CC(N)=O)C(=O)N[C@H](C(=O)N[C@H](C(=O)N[C@H]1CSSC[C@@H](C(=O)O)NC(=O)[C@H](CC(C)C)NC(=O)CNC(=O)[C@H](CO)NC(=O)[C@H](CC(C)C)NC(=O)CNC1=O)C(C)C)[C@@H](C)CC [GLLSGILGAGKNIVCGLSGLC]

MIC [22]: ≥ 100 µM
Structure (SMILES): CC[C@H](C)[C@H](N)C(=O)N[C@@H](CC(C)C)C(=O)N1CCC[C@H]1C(=O)N[C@@H](CCC(=O)O)C(=O)N[C@@H](CCCCN)C(=O)N[C@@H](CCC(=O)O)C(=O)N1CCC[C@H]1C(=O)N[C@@H](CCC(=O)O)C(=O)N[C@@H](CCC(=O)O)C(=O)N1CCC[C@H]1C(=O)N[C@@H](CCC(=O)O)C(=O)N[C@@H](CCCN=C(N)N)C(=O)N[C@@H](CCCN=C(N)N)C(N)=O [ILPEKEPEEPERR]

MIC [22]: ≥ 100 µM
Structure (SMILES): CC[C@H](C)[C@H](N)C(=O)N[C@@H](CC(C)C)C(=O)N1CCC[C@H]1C(=O)N[C@@H](CCCCN)C(=O)N[C@@H](CCCCN)C(=O)N[C@@H](CCCCN)C(=O)N1CCC[C@H]1C(=O)N[C@@H](CCCCN)C(=O)N[C@@H](CCCCN)C(=O)N1CCC[C@H]1C(=O)N[C@@H](CCCCN)C(=O)N[C@@H](CCCN=C(N)N)C(=O)N[C@@H](CCCN=C(N)N)C(N)=O [ILPKKKPKKPKRR]

MIC [23]: ≥ 178 µM
Structure (SMILES): CC[C@H](C)[C@H](NC(=O)[C@H](CCC(=O)O)NC(=O)[C@H](CCCCN)NC(=O)[C@H](CC(C)C)NC(=O)[C@H](CCC(N)=O)NC(=O)[C@H](CCC(=O)O)NC(=O)[C@@H](NC(=O)[C@H](CC(C)C)NC(=O)[C@@H](N)CCCCN)C(C)C)C(=O)N[C@@H](Cc1ccccc1)C(=O)N[C@@H](CCCN=C(N)N)C(=O)O [KLVEQLKEIFR]

MIC [1]: 19.1 µM (≈ 26.2 µg/mL)
MIC [2]: 9.6 µM (≈ 13.2 µg/mL)
MIC [3]: 2.4 µM (≈ 3.29 µg/mL)
MIC [4]: 19.1 µM (≈ 26.2 µg/mL)
MIC [5]: 9.6 µM (≈ 13.2 µg/mL)
MIC [6]: 2.4 µM (≈ 3.29 µg/mL)
MIC [7]: 1.2 µM (≈ 1.65 µg/mL)
Structure (SMILES): CC[C@H](C)[C@H](NC(=O)[C@H](Cc1c[nH]c2ccccc12)NC(=O)[C@H](Cc1c[nH]c2ccccc12)NC(=O)[C@H](CCCCN)NC(=O)[C@H](Cc1c[nH]c2ccccc12)NC(=O)[C@H](CCCN=C(N)N)NC(=O)[C@H](CCCN=C(N)N)NC(=O)[C@H](CCCCN)NC(=O)[C@@H](N)CC(C)C)C(=O)O [LKRRWKWWI]

MIC [24]: 8 µM (≈ 18.2 µg/mL)
Structure (SMILES): CC[C@H](C)[C@H](NC(=O)[C@@H]1CCCN1C(=O)[C@H](CCCN=C(N)N)NC(=O)[C@H](CCCN=C(N)N)NC(=O)[C@H](Cc1ccccc1)NC(=O)[C@@H](N)CCCN=C(N)N)C(=O)N[C@@H](CCCN=C(N)N)C(=O)N[C@@H](CCCN=C(N)N)C(=O)N[C@@H](CCCN=C(N)N)C(=O)N1CCC[C@H]1C(=O)N[C@H](C(=O)N[C@@H](CCCN=C(N)N)C(=O)N1CCC[C@H]1C(=O)N1CCC[C@H]1C(=O)N[C@@H](Cc1ccccc1)C(=O)N[C@@H](Cc1ccc(O)cc1)C(=O)N1CCC[C@H]1C(=O)O)[C@@H](C)CC [RFRRPIRRRPIRPPFYP]

MIC [1]: 9.8 µM (≈ 13.1 µg/mL)
MIC [2]: 9.8 µM (≈ 13.1 µg/mL)
MIC [3]: 1.2 µM (≈ 1.6 µg/mL)
MIC [4]: 9.8 µM (≈ 13.1 µg/mL)
MIC [5]: 4.9 µM (≈ 6.53 µg/mL)
MIC [6]: 2.4 µM (≈ 3.2 µg/mL)
MIC [7]: 1.2 µM (≈ 1.6 µg/mL)
Structure (SMILES): CC(C)C[C@H](NC(=O)[C@H](Cc1ccccc1)NC(=O)[C@H](CCCCN)NC(=O)[C@H](Cc1c[nH]c2ccccc12)NC(=O)[C@H](Cc1c[nH]c2ccccc12)NC(=O)[C@H](CCCN=C(N)N)NC(=O)[C@H](CCCCN)NC(=O)[C@H](CC(C)C)NC(=O)[C@@H](N)CCCN=C(N)N)C(=O)O [RLKRWWKFL]

MIC [23]: 26.6 µM (≈ 32 µg/mL)
Structure (SMILES): NC(N)=NCCC[C@H](NC(=O)[C@H](Cc1c[nH]c2ccccc12)NC(=O)[C@H](Cc1c[nH]c2ccccc12)NC(=O)[C@H](Cc1c[nH]c2ccccc12)NC(=O)[C@H](CCCN=C(N)N)NC(=O)[C@H](CCCN=C(N)N)NC(=O)[C@@H](N)CCCN=C(N)N)C(=O)O [RRRWWWR]

MIC [23]: ≥ 461 µM
Structure (SMILES): NCCCC[C@H](NC(=O)[C@H](CCCN=C(N)N)NC(=O)[C@H](CCCN=C(N)N)NC(=O)[C@H](CCCCN)NC(=O)[C@H](Cc1c[nH]c2ccccc12)NC(=O)[C@H](CCCN=C(N)N)NC(=O)[C@@H](N)CCCN=C(N)N)C(=O)O [RRWKRRK]

MIC [23]: 3.65 µM (≈ 8 µg/mL)
Structure (SMILES): NC(=O)[C@H](Cc1cnc[nH]1)NC(=O)[C@H](Cc1ccccc1)NC(=O)[C@H](Cc1ccccc1)NC(=O)[C@H](Cc1cnc[nH]1)NC(=O)[C@H](Cc1cnc[nH]1)NC(=O)[C@H](Cc1ccccc1)NC(=O)[C@H](Cc1cnc[nH]1)NC(=O)[C@H](CCCN=C(N)N)NC(=O)[C@H](Cc1c[nH]c2ccccc12)NC(=O)[C@H](Cc1c[nH]c2ccccc12)NC(=O)[C@H](CCCN=C(N)N)NC(=O)[C@H](CCCN=C(N)N)NC(=O)[C@H](Cc1c[nH]c2ccccc12)NC(=O)[C@@H](N)CCCN=C(N)N [RWRRWWRHFHHFFH]

MIC [1]: 5.8 µM (≈ 7.63 µg/mL)
MIC [2]: 11.5 µM (≈ 15.1 µg/mL)
MIC [3]: 5.8 µM (≈ 7.63 µg/mL)
MIC [4]: 2.9 µM (≈ 3.82 µg/mL)
MIC [5]: 11.5 µM (≈ 15.1 µg/mL)
MIC [6]: 0.7 µM (≈ 0.921 µg/mL)
MIC [7]: 0.458 µM (≈ 0.603 µg/mL)
Structure (SMILES): CC[C@H](C)[C@H](NC(=O)[C@H](Cc1c[nH]c2ccccc12)NC(=O)[C@H](CCCCN)NC(=O)[C@H](CCCCN)NC(=O)[C@H](CC(C)C)NC(=O)[C@H](Cc1c[nH]c2ccccc12)NC(=O)[C@H](CCCCN)NC(=O)[C@@H](N)Cc1c[nH]c2ccccc12)C(=O)N[C@@H](CCCCN)C(=O)O [WKWLKKWIK]

MIC [22]: 0.4 µM (≈ 0.633 µg/mL)
Structure (SMILES): NCCCC[C@H](NC(=O)[C@@H](N)Cc1c[nH]c2ccccc12)C(=O)N[C@@H](Cc1c[nH]c2ccccc12)C(=O)N1CCC[C@H]1C(=O)N[C@@H](Cc1c[nH]c2ccccc12)C(=O)N[C@@H](Cc1c[nH]c2ccccc12)C(=O)N1CCC[C@H]1C(=O)N[C@@H](Cc1c[nH]c2ccccc12)C(=O)N[C@@H](CCCN=C(N)N)C(=O)N[C@@H](CCCN=C(N)N)C(N)=O [WKWPWWPWRR]
